Among the data in patent publication US11135209B2, “Compositions and methods for inhibiting protein kinases” (UNIVERSITY OF HOUSTON SYSTEM, priority 2017, dated 2021) are IC50 and inhibition values, retold here.

Bounds are passed on as bounds.

Test [1] concerns NOD2 cellular signaling in HEK-Blue cells expressing human NOD2. Put plainly: NOD2 cell signaling assay (HEK-Blue, NFkB-SEAP reporter, L18-MDP stimulated). Type of test: cell-based. Conditions: read-out: IC50 (nM) HEKBlue RIPK2. The protocol: NOD2 Cell Signaling Assay.
HEK-Blue cells expressing human NOD2 and NFkB-SAEP reporter (Invivogen) are seeded into 96 well clear plates at 7.5×10^3 cells per well in 100 μL of DMEM media supplemented with 10% FBS and 1% antibiotic-antimycotic mix. Cells are allowed to attach for 48 h in 5% CO2 tissue culture incubator at 37° C. On the morning of the experiment, media in the wells is replaced with 100 pt of HEK-Blue detection media (Invivogen). Cells are treated with the inhibitors, diluted in DMSO (0.5 μL per well) for 15 min in 5% CO2 tissue culture incubator at 37° C. After that, cells are stimulated by the addition of 1 ng/well L18-MDP (Invivogen). Cells are incubated in 5% CO2 tissue culture incubator at 37° C. for 8 h and absorbance, corresponding to the SEAP in the media, is determined in Wallac3V plate reader (Perkin Elmer). Inhibition, %=(1−((sample signal-unstimulated and DMSO treated cells)/(L18-MDP stimulated and DMSO treated cells−unstimulated and DMSO treated cells)))*100. IC50 values are calculated based on a dose range of inhibitor concentrations using non-linear regression in GraphPad Prism software.

The target of test [2] is Recombinant RIPK2 protein (Homo sapiens, UniProt O43353). Put plainly: Receptor Interacting Protein Kinase 2 (RIPK2) enzyme assay (ADP-Glo). The test is classed as biochemical. Conditions: for inhibition at 0.5 µM: Conc. 500 nM. Here is the method:
Receptor Interacting Protein Kinase 2 (RIPK2) Enzyme Assay
Recombinant RIPK2 protein (20 ng per reaction) is diluted in the reaction buffer consisting of 40 mM Tris (pH 7.5); 20 mM MgCl2; 0.1 mg/ml BSA; 50 μM DTT. Diluted protein is added to low volume white 384 well plates (2 μL/well). Inhibitors are diluted in reaction buffer (final 25% DMSO), 1 μL is added to each well and incubated 5 min at room temperature. Reactions are initiated by the addition of 2 μL of 100 μM ATP and 1 mg/ml RS repeat peptide (SignalChem) in the reaction buffer. Plates are sealed with plastic coverslips and incubated at room temperature for 2 h. Reactions are stopped by the addition of 5 μL of ADP-Glo reagent (Promega) and ADP generation reaction is performed for 40 min at room temperature. Luminescence signal is generated by the addition of 10 μL of Kinase detection reagent (Promega) for 30 min at room temperature Luminescence signals are determined using appropriate luminescence plate-reader (typical integration time 0.3-1 sec). To calculate percent inhibition, average background signal is subtracted from test well and maximal signal wells. Inhibition, %=(1−(test signal/maximal signal))*100. The percent inhibition at a specified concentration is determined or IC50 values are calculated based on a dose range of inhibitor concentrations using non-linear regression in GraphPad Prism software.

In a further test the target is T1, human ALK2 (Homo sapiens, UniProt Q04771).
T1 sequence (Q04771 21-509): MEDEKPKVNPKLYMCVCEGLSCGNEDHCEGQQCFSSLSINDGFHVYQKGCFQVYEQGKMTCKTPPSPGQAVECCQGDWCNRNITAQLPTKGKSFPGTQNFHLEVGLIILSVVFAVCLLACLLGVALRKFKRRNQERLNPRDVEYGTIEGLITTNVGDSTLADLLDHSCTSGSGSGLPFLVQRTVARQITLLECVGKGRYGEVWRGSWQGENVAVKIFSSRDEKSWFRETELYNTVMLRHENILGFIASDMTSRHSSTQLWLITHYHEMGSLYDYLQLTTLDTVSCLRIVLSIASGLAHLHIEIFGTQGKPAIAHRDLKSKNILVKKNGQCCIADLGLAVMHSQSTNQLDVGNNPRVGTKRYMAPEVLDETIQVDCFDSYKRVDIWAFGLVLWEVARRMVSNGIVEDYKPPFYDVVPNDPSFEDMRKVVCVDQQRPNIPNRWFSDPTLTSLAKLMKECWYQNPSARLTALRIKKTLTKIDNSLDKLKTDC
Put plainly: Activin-Like Kinase 2 (ALK2) enzyme assay. Type of test: biochemical. Here is the method: Activin-Like Kinase 2 (ALK2) Enzyme Assay
Enzyme inhibitory activity was evaluated in a standard kinase enzyme assay by incubating human ALK2 with the protein substrate casein (1 mg/mL) and γ-^33ATP (10 μM) in the presence of various concentrations of test compounds (10 nM-100 μM). After 30 min the amount of ^33P-casein was determined.

Recombinant RIPK2 protein, sequence (O43353 whole entry, species assumed): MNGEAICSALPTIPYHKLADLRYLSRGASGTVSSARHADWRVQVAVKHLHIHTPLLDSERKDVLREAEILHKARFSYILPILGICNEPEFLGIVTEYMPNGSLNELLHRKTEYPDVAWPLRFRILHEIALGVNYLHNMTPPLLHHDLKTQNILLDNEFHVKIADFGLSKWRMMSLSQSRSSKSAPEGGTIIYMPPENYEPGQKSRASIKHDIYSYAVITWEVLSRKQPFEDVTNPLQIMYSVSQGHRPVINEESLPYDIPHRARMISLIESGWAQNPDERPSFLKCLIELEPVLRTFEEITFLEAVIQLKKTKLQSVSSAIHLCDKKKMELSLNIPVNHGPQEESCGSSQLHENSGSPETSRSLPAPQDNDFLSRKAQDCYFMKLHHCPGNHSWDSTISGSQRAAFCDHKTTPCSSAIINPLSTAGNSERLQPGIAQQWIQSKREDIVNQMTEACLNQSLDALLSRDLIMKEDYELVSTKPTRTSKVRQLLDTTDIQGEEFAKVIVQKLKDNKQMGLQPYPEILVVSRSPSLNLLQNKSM

In general, IC50 refers to the concentration needed to halve the response being measured. As to `CCCS(=O)(=O)NCc1cc(-c2cc(-c3ccc(N4CCNCC4)cc3)cnc2N)ccc1OC` [CSLP36, N-(5-(2-Amino-5-(4-(piperazin-1-yl)phenyl)pyridin-3-yl)-2-methoxybenzyl)propane-1-sulfonamide], the IC50 is greater than 1000 nM in test [1], greater than 100 nM in test [2] and greater than 100 nM against human ALK2.

As for `CCCS(=O)(=O)Nc1cc(-c2cc(-c3ccc(N4CCNCC4)cc3)cnc2N)ccc1OC` [CSLP18], the IC50 in test [1] is greater than 100 nM; in test [2], greater than 10 nM; at human ALK2, greater than 1000 nM.

Regarding `COc1cc(NS(=O)(=O)C2CC2)cc(-c2cc(-c3ccc(N4CCNCC4)cc3)cnc2N)c1` [CSLP11, N-(3-(2-Amino-5-(4-(piperazin-1-yl)phenyl)pyridin-3-yl)-5-methoxyphenyl)cyclopropanesulfonamide], the results for the IC50 in test [1] and in test [2] were greater than 100 nM and greater than 10 nM, respectively.

For `CCCS(=O)(=O)Nc1cc(OC)cc(-c2cc(-c3cccc(S(C)(=O)=O)c3)cnc2N)c1` [CSLP44, N-(3-(2-Amino-5-(3-(methylsulfonyl)phenyl)pyridin-3-yl)-5-methoxyphenyl)propane-1-sulfonamide], the IC50 in test [1] was greater than 1000 nM; in test [2] it was greater than 10 nM; against human ALK2 it was greater than 100 nM.

One may read the inhibition as how much of the control response was suppressed. On to `COc1cc(NS(=O)(=O)C(C)C)cc(-c2cc(-c3ccc(N4CCNCC4)cc3)cnc2C)c1` [CSLP16, N-(3-Methoxy-5-(2-methyl-5-(4-(piperazin-1-yl)phenyl)pyridin-3-yl)phenyl)propane-2-sulfonamide], for which the IC50 was greater than 100 nM in test [1], greater than 10 nM in test [2] and greater than 100 nM against human ALK2. For the same molecule, in test [2], the inhibition at 0.5 µM came to 85%.

On to `CCS(=O)(=O)Nc1cc(OC)cc(-c2cc(-c3ccc(N4CCNCC4)cc3)cnc2N)c1` [CSLP7], for which the results for the 50% inhibitory concentration (IC50) in test [1] and in test [2] were greater than 100 nM and greater than 10 nM, respectively.

As to `CCCS(=O)(=O)Nc1cc(-c2cc(-c3ccc(S(C)(=O)=O)cc3)cnc2N)ccc1OC` [CSLP34], the IC50 in test [1] was greater than 1000 nM; in test [2], greater than 100 nM; at human ALK2 it was greater than 10000 nM.

In the case of `CCCS(=O)(=O)Nc1cc(-c2cc(-c3ccc(N4CCNCC4)cc3)cnc2N)cc(C)c1OC` [CSLP42, N-(5-(2-Amino-5-(4-(piperazin-1-yl)phenyl)pyridin-3-yl)-2-methoxy-3-methylphenyl)propane-1-sulfonamide], the IC50 in test [1] is greater than 100 nM; in test [2] it was greater than 10 nM; against human ALK2 it was greater than 100 nM.

As to `CCCS(=O)(=O)N1CCOc2c(F)cc(-c3cc(-c4ccc(N5CCNCC5)cc4)cnc3N)cc21` [CSLP57, 3-(8-Fluoro-4-(propylsulfonyl)-3,4-dihydro-2H-benzo[b][1,4]oxazin-6-yl)-5-(4-(piperazin-1-yl)phenyl)pyridin-2-amine], the values for the IC50 (in test [1]; in test [2]; at human ALK2) were greater than 100 nM, greater than 100 nM and greater than 1000 nM, respectively.

Turning to `CCCS(=O)(=O)N1CCOc2ccc(-c3cc(-c4ccc(N5CCNCC5)cc4)cnc3N)cc21` [CSLP47, 5-(4-(Piperazin-1-yl)phenyl)-3-(4-(propylsulfonyl)-3,4-dihydro-2H-benzo[b][1,4]oxazin-6-yl)pyridin-2-amine], the figures for the IC50 (in test [1]; in test [2]; against human ALK2) were greater than 1000 nM, greater than 10 nM and greater than 100000 nM, respectively.

`CCCS(=O)(=O)Nc1cc(OC)cc(-c2cc(-c3ccc(N4CCNCC4)cc3)cnc2C)c1` [CSLP10, N-(3-Methoxy-5-(2-methyl-5-(4-(piperazin-1-yl)phenyl)pyridin-3-yl)phenyl)propane-1-sulfonamide]: the IC50 in test [1] is greater than 1000 nM; in test [2], greater than 100 nM; at human ALK2, greater than 10 nM. Besides, the inhibition at 0.5 µM in test [2] was 84%.

Turning to `CCCS(=O)(=O)Nc1cc(-c2cc(-c3ccc(N4CCNCC4)cc3)cnc2N)cc(OCC)c1OC` [CSLP56], the IC50 in test [1] is greater than 1000 nM; in test [2], greater than 1000 nM; on human ALK2, greater than 100000 nM.

Take `CCCS(=O)(=O)Nc1cc(-c2cc(-c3ccc(N4CCNCC4)cc3)cnc2N)ccc1C` [CSLP26, N-(5-(2-Amino-5-(4-(piperazin-1-yl)phenyl)pyridin-3-yl)-2-methylphenyl)propane-1-sulfonamide]: the values for the IC50 (in test [1]; in test [2]; at human ALK2) were greater than 1000 nM, greater than 100 nM and greater than 1000 nM, respectively.

On to `CCCS(=O)(=O)Nc1cc(-c2cc(-c3ccc(N4CCNCC4)cc3)cnc2N)cc(C)c1C` [CSLP45, N-(5-(2-Amino-5-(4-(piperazin-1-yl)phenyl)pyridin-3-yl)-2,3-dimethylphenyl)propane-1-sulfonamide], for which the IC50 (in test [1]; in test [2]; against human ALK2) was greater than 100 nM throughout.

Turning to `CCS(=O)(=O)Nc1cc(OC)cc(-c2cc(-c3ccc(N4CCNCC4)cc3)cnc2C)c1` [CSLP15, N-(3-Methoxy-5-(2-methyl-5-(4-(piperazin-1-yl)phenyl)pyridin-3-yl)phenyl)ethanesulfonamide], the IC50 in test [1] was greater than 1000 nM; in test [2], greater than 100 nM; at human ALK2 it was greater than 10 nM. The inhibition at 0.5 µM in test [2] is 73%.

Take `CCCS(=O)(=O)Nc1ccc(-c2cc(-c3ccc(N4CCNCC4)cc3)cnc2C)cc1OC` [CSLP1, N-(2-methoxy-4-(2-methyl-5-(4-(piperazin-1-yl)phenyl)pyridin-3-yl)phenyl)propane-1-sulfonamide]: the results for the IC50 (in test [1]; against human ALK2) were greater than 1000 nM and greater than 100000 nM, respectively. The inhibition at 0.5 µM in test [2] was less than 0%.

For the molecule `COc1cc(NS(=O)(=O)CC(C)C)cc(-c2cc(-c3ccc(N4CCNCC4)cc3)cnc2C)c1` [CSLP17, N-(3-Methoxy-5-(2-methyl-5-(4-(piperazin-1-yl)phenyl)pyridin-3-yl)phenyl)-2-methylpropane-1-sulfonamide], the IC50 in test [1] was greater than 1000 nM; in test [2], greater than 10 nM; at human ALK2, greater than 10 nM. Besides, the inhibition at 0.5 µM in test [2] came to 86%.

As to `CC(C)Oc1cc(NS(=O)(=O)C(C)C)cc(-c2cc(-c3ccc(N4CCNCC4)cc3)cnc2N)c1` [CSLP29, N-(3-(2-Amino-5-(4-(piperazin-1-yl)phenyl)pyridin-3-yl)-5-isopropoxyphenyl)propane-2-sulfonamide], the values for the IC50 (in test [1]; in test [2]; against human ALK2) were greater than 100 nM, greater than 100 nM and greater than 100000 nM, respectively.

Regarding `CCCS(=O)(=O)Nc1cc(-c2cc(-c3ccc(N4CCNCC4)cc3)cnc2N)cc(OC)c1C` [CSLP19, N-(5-(2-Amino-5-(4-(piperazin-1-yl)phenyl)pyridin-3-yl)-3-methoxy-2-methylphenyl)propane-1-sulfonamide], the 50% inhibitory concentration (IC50) was greater than 1000 nM in test [1], greater than 1000 nM in test [2] and greater than 100 nM at human ALK2.

Take `COc1cc(-c2cc(-c3ccc(N4CCNCC4)cc3)cnc2N)cc(NS(=O)(=O)Cc2ccccc2)c1C` [CSLP31, N-(5-(2-Amino-5-(4-(piperazin-1-yl)phenyl)pyridin-3-yl)-3-methoxy-2-methylphenyl)-1-phenylmethanesulfonamide]: the IC50 is greater than 100 nM in test [1], greater than 1000 nM in test [2] and greater than 10 nM at human ALK2.

`COc1cc(NS(=O)(=O)C(C)C)cc(-c2cc(-c3ccc(N4CCNCC4)cc3)cnc2N)c1` [CSLP8]: the IC50 in test [1] is greater than 100 nM; in test [2], greater than 10 nM; against human ALK2 it was greater than 1 nM.

In the case of `COc1cc(NS(=O)(=O)C2CC2)cc(-c2cc(-c3ccc(N4CCNCC4)cc3)cnc2C)c1` [CSLP9, N-(3-Methoxy-5-(2-methyl-5-(4-(piperazin-1-yl)phenyl)pyridin-3-yl)phenyl)cyclopropanesulfonamide], in test [1], the half-maximal inhibitory concentration (IC50) is greater than 1000 nM. Further, in test [2], the inhibition at 0.5 µM was found to be 76%.
